ChEMBL document CHEMBL1649238, “Natural polymorphisms of human immunodeficiency virus type 1 integrase and inherent susceptibilities to a panel of integrase inhibitors” (2009)

Columns and labels:
Assay type in all cases: functional
[1] = system: Human immunodeficiency virus 1; assay: Antiviral activity against HIV1 F-15 harboring integrase D10E, K42T, A124N, T125A, V126L, M154L, V201I, T206S, N232D, V281S mutant gene infected in human TZM-bl cells assessed as beta-galactosidase expression after 48 hrs by microplate luminometry relative to HIV1 R7/3 expressing wild type integrase enzyme
[2] = system: Human immunodeficiency virus 1; assay: (§1) Antiviral activity against HIV1 A-6 harboring integrase D10E, V72I, A124T, M154I, R199K, V201I, N232D mutant gene infected in human TZM-bl cells assessed as beta-galactosidase expression after 48 hrs by microplate luminometry relative to HIV1 R7/3 expressing wild type integrase enzyme
[3] = system: Human immunodeficiency virus 1; assay: Antiviral activity against HIV1 R-6 harboring integrase D10E, E11D, S17N, A23V, L28I, P30A, V72I, L101I, S119T, T122I, A124T, V201I, N222D, N232D, S230G, D253E, N254G mutant gene infected in human TZM-bl cells assessed as beta-galactosidase expression after 48 hrs by microplate luminometry relative to HIV1 R7/3 expressing wild type integrase enzyme
[4] = system: Human immunodeficiency virus 1; assay: as §1, with “R-31” for “A-6”, “D10E, E11D, V32I, V37I,” for “D10E,”, “L101I, T112I, A124N, T125A, K173R, A205S, Q216H, N222K, S230N,” for “A124T, M154I, R199K, V201I,”
[5] = system: Human immunodeficiency virus 1; assay: as §1, with “N-19” for “A-6”, “E11D, D25E, V31I, I113V, S119G, A124N, V151I,” for “V72I, A124T, M154I, R199K,”
[6] = system: Human immunodeficiency virus 1; assay: Antiviral activity against HIV1 B-27 harboring integrase D10E, R20K, S39C, V72I, A124N, T125M, V201I, N232D mutant gene infected in human TZM-bl cells assessed as beta-galactosidase expression after 48 hrs by microplate luminometry relative to HIV1 R7/3 expressing wild type integrase enzyme
[7] = system: Human immunodeficiency virus 1; assay: Antiviral activity against HIV1 B-28 harboring integrase D10E, R20K, S39C, V72I, A124N, T125V, V201I, N232D mutant gene infected in human TZM-bl cells assessed as beta-galactosidase expression after 48 hrs by microplate luminometry relative to HIV1 R7/3 expressing wild type integrase enzyme
[8] = system: Human immunodeficiency virus 1; assay: Antiviral activity against HIV1 G-8 harboring integrase D10E, L101I, S119T, A124T, M154L, V201I, N232D, S283G mutant gene infected in human TZM-bl cells assessed as beta-galactosidase expression after 48 hrs by microplate luminometry relative to HIV1 R7/3 expressing wild type integrase enzyme
[9] = system: Human immunodeficiency virus 1; assay: Antiviral activity against HIV1 G-4 harboring integrase K7R, D10E, S39C, L74I, K156R, K215N, T218I, N232D, L234I mutant gene infected in human TZM-bl cells assessed as beta-galactosidase expression after 48 hrs by microplate luminometry relative to HIV1 R7/3 expressing wild type integrase enzyme
[10] = system: Human immunodeficiency virus 1; assay: Antiviral activity against HIV1 K-2 harboring integrase D10E, R20K, I113V, A124T, K188R, V201I, T206S, N232D, D278G mutant gene infected in human TZM-bl cells assessed as beta-galactosidase expression after 48 hrs by microplate luminometry relative to HIV1 R7/3 expressing wild type integrase enzyme
[11] = system: Human immunodeficiency virus 1; assay: Antiviral activity against HIV1 harboring integrase T97A mutant infected in human TZM-bl cells assessed as beta-galactosidase expression after 48 hrs by microplate luminometry relative to HIV1 R7/3 expressing wild type integrase enzyme relative to HIV1 R7/3 expressing wild type integrase enzyme
[12] = system: Human immunodeficiency virus 1; assay: Antiviral activity against HIV1 harboring integrase N155H mutant infected in human TZM-bl cells assessed as beta-galactosidase expression after 48 hrs by microplate luminometry relative to HIV1 R7/3 expressing wild type integrase enzyme relative to HIV1 R7/3 expressing wild type integrase enzyme

Row | SMILES | Ratio EC50 [1] | Ratio EC50 [2] | Ratio EC50 [3] | Ratio EC50 [4] | Ratio EC50 [5] | Ratio EC50 [6] | Ratio EC50 [7] | Ratio EC50 [8] | Ratio EC50 [9] | Ratio EC50 [10] | Ratio EC50 [11] | Ratio EC50 [12]
1 | CNC(=O)c1cc(F)ccc1CNC(=O)c1nc(N2CCCCS2(=O)=O)c2cccnc2c1O | 0.656 | 0.5 | 1.067 | 0.995 | 0.456 | 0.627 | 0.767 | 0.425 | 0.565 | 0.448 | 0.865 | 4.295
2 | CN(C)C(=O)C(=O)NC(C)(C)c1nc(C(=O)NCc2ccc(F)cc2)c(O)c(=O)n1C | 0.329 | 0.946 | 0.644 | 1.005 | 0.998 | 0.592 | 0.766 | 0.286 | 0.847 | 0.394 | 2 | 0.78
3 | CN(C)C(=O)C(=O)N(C)c1nc(C(=O)NCc2ccc(F)cc2)c(O)c2ncccc12 | 0.33 | 0.836 | 0.412 | 1.589 | 0.927 | 0.966 | 0.673 | 0.515 | 0.643 | 0.461 | 3.767 | 2.692
4 | O=C(NCc1ccc(F)cc1)c1nc(N2CCCCS2(=O)=O)c2cccnc2c1O | 0.505 | 0.863 | 1.175 | 1.268 | 1.416 | 1.306 | 0.973 | 0.488 | 1.3 | 0.468 | 6.067 | 12.647
